Data taken from US5288720A, “Angiotensin II receptor blocking 2,3,6 substituted quinazolinones” (American Cyanamid Company, priority 1993, dated 1994).

Tested on: ANGIOTENSIN II VASOPRESSOR RESPONSE
Assay: AII Challenge: blockade of angiotensin II vasopressor response in conscious SHR
Format: in vivo, rat (Conscious Male Okamoto-Aoki SHR)
Settings: SHR n=2
Procedure, shortened: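 Conscious male Okamoto-Aoki SHR (16-20 weeks, ~330 g) cannulated in aorta and vena cava under local procaine; angiotensin II (human) 0.05 and 0.1 ug/kg i.v. given before and at 30-300 min after test compound i.v., i.p. or orally. Rise in systolic pressure (mmHg) expressed as % blockade versus each rat's predose response.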

[1] = 3 mg/kg i.v., AII 0.05 mcg/kg IV, 30 min post dose
[2] = 3 mg/kg i.v., AII 0.05 mcg/kg IV, 60 min post dose
[3] = 3 mg/kg i.v., AII 0.05 mcg/kg IV, 90 min post dose
[4] = 3 mg/kg i.v., AII 0.05 mcg/kg IV, 120 min post dose
[5] = 3 mg/kg i.v., AII 0.05 mcg/kg IV, 180 min post dose
[6] = 3 mg/kg i.v., AII 0.05 mcg/kg IV, 240 min post dose
[7] = 3 mg/kg i.v., AII 0.05 mcg/kg IV, 300 min post dose
[8] = 3 mg/kg i.v., AII 0.1 mcg/kg IV, 30 min post dose
[9] = 3 mg/kg i.v., AII 0.1 mcg/kg IV, 60 min post dose
[10] = 3 mg/kg i.v., AII 0.1 mcg/kg IV, 90 min post dose
[11] = 3 mg/kg i.v., AII 0.1 mcg/kg IV, 120 min post dose
[12] = 3 mg/kg i.v., AII 0.1 mcg/kg IV, 180 min post dose
[13] = 3 mg/kg i.v., AII 0.1 mcg/kg IV, 240 min post dose
[14] = 3 mg/kg i.v., AII 0.1 mcg/kg IV, 300 min post dose
[15] = 3 mg/kg p.o., AII 0.05 mcg/kg IV, 30 min post dose
[16] = 3 mg/kg p.o., AII 0.05 mcg/kg IV, 60 min post dose
[17] = 3 mg/kg p.o., AII 0.05 mcg/kg IV, 90 min post dose
[18] = 3 mg/kg p.o., AII 0.05 mcg/kg IV, 120 min post dose
[19] = 3 mg/kg p.o., AII 0.05 mcg/kg IV, 180 min post dose
[20] = 3 mg/kg p.o., AII 0.1 mcg/kg IV, 30 min post dose
[21] = 3 mg/kg p.o., AII 0.1 mcg/kg IV, 60 min post dose
[22] = 3 mg/kg p.o., AII 0.1 mcg/kg IV, 90 min post dose
[23] = 3 mg/kg p.o., AII 0.1 mcg/kg IV, 120 min post dose
[24] = 3 mg/kg p.o., AII 0.1 mcg/kg IV, 180 min post dose
[25] = 10 mg/kg p.o., AII 0.05 mcg/kg IV, 30 min post dose
[26] = 10 mg/kg p.o., AII 0.05 mcg/kg IV, 60 min post dose
[27] = 10 mg/kg p.o., AII 0.05 mcg/kg IV, 90 min post dose
[28] = 10 mg/kg p.o., AII 0.05 mcg/kg IV, 120 min post dose
[29] = 10 mg/kg p.o., AII 0.05 mcg/kg IV, 180 min post dose
[30] = 10 mg/kg p.o., AII 0.05 mcg/kg IV, 240 min post dose
[31] = 10 mg/kg p.o., AII 0.05 mcg/kg IV, 300 min post dose
[32] = 10 mg/kg p.o., AII 0.1 mcg/kg IV, 30 min post dose
[33] = 10 mg/kg p.o., AII 0.1 mcg/kg IV, 60 min post dose
[34] = 10 mg/kg p.o., AII 0.1 mcg/kg IV, 90 min post dose
[35] = 10 mg/kg p.o., AII 0.1 mcg/kg IV, 120 min post dose
[36] = 10 mg/kg p.o., AII 0.1 mcg/kg IV, 180 min post dose
[37] = 10 mg/kg p.o., AII 0.1 mcg/kg IV, 240 min post dose
[38] = 10 mg/kg p.o., AII 0.1 mcg/kg IV, 300 min post dose

CCCCc1nc2ccc(C(O)C3CCCN(C)C3=O)cc2c(=O)n1Cc1ccc(-c2ccccc2-c2nn[nH]n2)cc1 (single isomer, unassigned; isomer 1) [Example 37, 2-Butyl-6-hydroxy(1-methyl-2-oxo-3-piperidinyl)methyl]-3-[[2'-(1H-tetrazol-5-yl)[1,1'-biphenyl]-4-yl]methyl]-4(3H)-quinazolinone isomer 1]
% Inhibition of AII vasopressor response [1]: 100%
Average Change (systolic blood pressure response to AII) [1]: 0 mmHg
% Inhibition of AII vasopressor response [2]: 100%
Average Change (systolic blood pressure response to AII) [2]: 0 mmHg
% Inhibition of AII vasopressor response [3]: 100%
Average Change (systolic blood pressure response to AII) [3]: 0 mmHg
% Inhibition of AII vasopressor response [4]: 91%
Average Change (systolic blood pressure response to AII) [4]: 2.5 mmHg
% Inhibition of AII vasopressor response [5]: 55%
Average Change (systolic blood pressure response to AII) [5]: 12.5 mmHg
% Inhibition of AII vasopressor response [6]: 64%
Average Change (systolic blood pressure response to AII) [6]: 10 mmHg
% Inhibition of AII vasopressor response [7]: 36%
Average Change (systolic blood pressure response to AII) [7]: 17.5 mmHg
% Inhibition of AII vasopressor response [8]: 92%
Average Change (systolic blood pressure response to AII) [8]: 2.5 mmHg
% Inhibition of AII vasopressor response [9]: 92%
Average Change (systolic blood pressure response to AII) [9]: 2.5 mmHg
% Inhibition of AII vasopressor response [10]: 85%
Average Change (systolic blood pressure response to AII) [10]: 5 mmHg
% Inhibition of AII vasopressor response [11]: 85%
Average Change (systolic blood pressure response to AII) [11]: 5 mmHg
% Inhibition of AII vasopressor response [12]: 66%
Average Change (systolic blood pressure response to AII) [12]: 11 mmHg
% Inhibition of AII vasopressor response [13]: 23%
Average Change (systolic blood pressure response to AII) [13]: 25 mmHg
% Inhibition of AII vasopressor response [14]: 0%
Average Change (systolic blood pressure response to AII) [14]: 32.5 mmHg
% Inhibition of AII vasopressor response [15]: 53%
Average Change (systolic blood pressure response to AII) [15]: 19 mmHg
% Inhibition of AII vasopressor response [16]: 29%
Average Change (systolic blood pressure response to AII) [16]: 28.5 mmHg
% Inhibition of AII vasopressor response [17]: 29%
Average Change (systolic blood pressure response to AII) [17]: 28.5 mmHg
% Inhibition of AII vasopressor response [18]: 13%
Average Change (systolic blood pressure response to AII) [18]: 35 mmHg
% Inhibition of AII vasopressor response [19]: 0%
Average Change (systolic blood pressure response to AII) [19]: 40 mmHg
% Inhibition of AII vasopressor response [20]: -6%
Average Change (systolic blood pressure response to AII) [20]: 47.5 mmHg
% Inhibition of AII vasopressor response [21]: 30%
Average Change (systolic blood pressure response to AII) [21]: 31.5 mmHg
% Inhibition of AII vasopressor response [22]: 11%
Average Change (systolic blood pressure response to AII) [22]: 40 mmHg
% Inhibition of AII vasopressor response [23]: 22%
Average Change (systolic blood pressure response to AII) [23]: 35 mmHg
% Inhibition of AII vasopressor response [24]: 22%
Average Change (systolic blood pressure response to AII) [24]: 35 mmHg
% Inhibition of AII vasopressor response [25]: 67%
Average Change (systolic blood pressure response to AII) [25]: 17.5 mmHg
% Inhibition of AII vasopressor response [26]: 65%
Average Change (systolic blood pressure response to AII) [26]: 18.5 mmHg
% Inhibition of AII vasopressor response [27]: 62%
Average Change (systolic blood pressure response to AII) [27]: 20 mmHg
% Inhibition of AII vasopressor response [28]: 67%
Average Change (systolic blood pressure response to AII) [28]: 17.5 mmHg
% Inhibition of AII vasopressor response [29]: 57%
Average Change (systolic blood pressure response to AII) [29]: 22.5 mmHg
% Inhibition of AII vasopressor response [30]: 43%
Average Change (systolic blood pressure response to AII) [30]: 30 mmHg
% Inhibition of AII vasopressor response [31]: 52%
Average Change (systolic blood pressure response to AII) [31]: 25 mmHg
% Inhibition of AII vasopressor response [32]: 40%
Average Change (systolic blood pressure response to AII) [32]: 30 mmHg
% Inhibition of AII vasopressor response [33]: 26%
Average Change (systolic blood pressure response to AII) [33]: 37 mmHg
% Inhibition of AII vasopressor response [34]: 40%
Average Change (systolic blood pressure response to AII) [34]: 30 mmHg
% Inhibition of AII vasopressor response [35]: 55%
Average Change (systolic blood pressure response to AII) [35]: 22.5 mmHg
% Inhibition of AII vasopressor response [36]: 35%
Average Change (systolic blood pressure response to AII) [36]: 32.5 mmHg
% Inhibition of AII vasopressor response [37]: 40%
Average Change (systolic blood pressure response to AII) [37]: 30 mmHg
% Inhibition of AII vasopressor response [38]: 35%
Average Change (systolic blood pressure response to AII) [38]: 32.5 mmHg
